In patent publication US11066416B2, “Rapafucin derivative compounds and methods of use thereof” (The Johns Hopkins University, priority 2016, dated 2021):

Test system: specific cell lines indicated in each assay
Assay: Cell proliferation assay (Prolif.), IC50 or single concentration, cell line as indicated in each table
Assay type: cell-based
Conditions: A549 cells; for Prolif, A549: Table 10; for Rel. Prolif., A549: single concentration, response relative to DMSO
Procedure: Cell Proliferation Assay (Prolif.) Guo et al. (2018) Nat. Chem. 11:254-63. Specific cell lines are indicated in each assay and cultured in complete growth media. Activity is scored according to the IC50 values relative to DMSO control. “Low” indicates an IC50 greater than 600 nM, “Medium” indicates an IC50 between 300 nM and 600 nM “High” indicates an IC50 less than 300 nM. “Rel.Uptake” refers to uptake activity characterization relative to a single concentration assay. “Low” indicates a response greater than 0.6 times the activity relative to DMSO, “Medium” indicates a response between 0.6 and 0.3 times the activity relative to DMSO, “High” indicates a response less than 0.3 times the activity relative to DMSO.

SMILES | Prolif, A549 | Rel. Prolif., A549
CCCC[C@H]1C(=O)N[C@@H](Cc2ccc3ccccc3c2)C(=O)N(C)[C@@H](COC(C)(C)C)C(=O)NCC(=O)N(C)CCC=CC(=O)OCC(C)(C)C(=O)C(=O)N2CCCC[C@H]2C(=O)O[C@H](CCc2ccc(OC)c(OC)c2)c2ccc(F)c(c2)OCC(=O)N1C [Compound 576] | medium | medium
CCCC[C@H]1C(=O)N[C@@H](Cc2ccc3ccccc3c2)C(=O)N(C)[C@@H](COC(C)(C)C)C(=O)NCC(=O)N(C)CCC=CC(=O)OCC(C)(C)C(=O)C(=O)N2CCCC[C@H]2C(=O)O[C@H](CCc2ccc(OC)c(OC)c2F)c2cccc(c2)OCC(=O)N1C [Compound 570] | medium | medium
CCCC[C@H]1C(=O)N[C@@H](Cc2ccc3ccccc3c2)C(=O)N(C)[C@@H](COC(C)(C)C)C(=O)NCC(=O)N(C)CCC=CC(=O)OCC(C)(C)C(=O)C(=O)N2CCCC[C@H]2C(=O)O[C@H](CCc2cc(F)c(OC)c(OC)c2)c2cccc(c2)OCC(=O)N1C [Compound 568] | medium | medium
CCCC[C@H]1C(=O)N[C@@H](Cc2ccc3ccccc3c2)C(=O)N(C)[C@@H](COC(C)(C)C)C(=O)NCC(=O)N(C)CCC=CC(=O)OCC(C)(C)C(=O)C(=O)N2CCCC[C@H]2C(=O)O[C@H](CCc2cc(OC)cc(OC)c2OC)c2cccc(c2)OCC(=O)N1C [Compound 563] | low | low
CCCC[C@H]1C(=O)N[C@@H](Cc2ccc3ccccc3c2)C(=O)N(C)[C@@H](COC(C)(C)C)C(=O)NCC(=O)N(C)CCC=CC(=O)OCC(C)(C)C(=O)C(=O)N2CCN(C(=O)OCC3c4ccccc4-c4ccccc43)C[C@H]2C(=O)O[C@H](CCc2ccc(OC)c(OC)c2)c2cccc(c2)OCC(=O)N1C [Compound 571] | low | low
CCCC[C@H]1C(=O)N[C@@H](Cc2ccc3ccccc3c2)C(=O)N(C)[C@@H](COC(C)(C)C)C(=O)NCC(=O)N(C)CCC=CC(=O)OCC(C)(C)C(=O)C(=O)N2CCCC[C@H]2C(=O)O[C@H](CCc2cc(OC)c(OC)cc2F)c2cccc(c2)OCC(=O)N1C [Compound 569] | medium | medium
CCCC[C@H]1C(=O)N[C@@H](Cc2ccc3ccccc3c2)C(=O)N(C)[C@@H](COC(C)(C)C)C(=O)NCC(=O)N(C)CCC=CC(=O)OCC(C)(C)C(=O)C(=O)N2CCCC[C@H]2C(=O)O[C@H](CCc2cc(OC)c(OC)c(OC)c2)c2cccc(c2)OCC(=O)N1C [Compound 560] | medium | medium
CCCC[C@H]1C(=O)N[C@@H](Cc2ccc3ccccc3c2)C(=O)N(C)[C@@H](COC(C)(C)C)C(=O)NCC(=O)N(C)CCC=CC(=O)OCC(C)(C)C(=O)C(=O)N2CCCC[C@H]2C(=O)O[C@H](CCc2ccc(OC)c(OC)c2OC)c2cccc(c2)OCC(=O)N1C [Compound 561] | medium | medium
CCCC[C@H]1C(=O)N[C@@H](Cc2ccc3ccccc3c2)C(=O)N(C)[C@@H](COC(C)(C)C)C(=O)NCC(=O)N(C)CCC=CC(=O)OCC(C)(C)C(=O)C(=O)N2CCCC[C@H]2C(=O)O[C@H](CCc2cc(OC)c(OC)cc2OC)c2cccc(c2)OCC(=O)N1C [Compound 562] | medium | medium
CCCC[C@H]1C(=O)N[C@@H](Cc2ccc3ccccc3c2)C(=O)N(C)[C@@H](COC(C)(C)C)C(=O)NCC(=O)N(C)CCC=CC(=O)OCC(C)(C)C(=O)C(=O)N2CCCC[C@H]2C(=O)O[C@H](CCc2ccc(OC)c(OC)c2)c2cc(F)cc(c2)OCC(=O)N1C [Compound 574] | low | low
CCCC[C@H]1C(=O)N[C@@H](Cc2ccc3ccccc3c2)C(=O)N(C)[C@@H](COC(C)(C)C)C(=O)NCC(=O)N(C)CCC=CC(=O)OCC(C)(C)C(=O)C(=O)N2CCCC[C@H]2C(=O)O[C@H](CCc2cc(OC)c(OC)cc2O)c2cccc(c2)OCC(=O)N1C [Compound 567] | medium | medium
